Assay results reported in PubChem BioAssay AID256 (DTP/NCI, 2004).
Values joined by “and” are separate entries in the source; they are usually repeats but may differ in a detail not shown here. Equal entries are not always repeated. Toxic doses and inconclusive results are not listed.

Tested on: CD2F1 mice, L1210 leukemia ip, survival T/C
Experiment: NCI In Vivo Anticancer Drug Screen. Data for tumor model L1210 Leukemia (intraperitoneal) in CD2F1 (CDF1) mice
Conditions: higher = longer survival
Outline: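 Read-out first: treated-group measurement over vehicle-control measurement, expressed as a ratio. Animals bore a transplanted tumor line and were dosed with compound or vehicle.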

## O=C1c2c(O)ccc(O)c2C(=O)c2c(NCCNCCO)ccc(NCCNCCO)c21
endpoint: mean survival time, dose: 3.89 mg/kg/injection, schedule: Q01DX001 (ip), vehicle: acid diluted with saline
  T/C: 190 % of control and 221 % of control
endpoint: mean survival time, dose: 3.89 mg/kg/injection, schedule: Q01DX001 (iv), vehicle: acid diluted with saline
  T/C: 163 % of control and 173 % of control
endpoint: mean survival time, dose: 4.0 mg/kg/injection, schedule: Q01DX005 (ip), vehicle: acid diluted with saline
  T/C: 256 % of control
endpoint: mean survival time, dose: 4.0 mg/kg/injection, schedule: Q01DX005 (iv), vehicle: acid diluted with saline
  T/C: 90 % of control
endpoint: mean survival time, dose: 4.0 mg/kg/injection, schedule: Q01DX005 (oral), vehicle: acid diluted with saline
  T/C: 102 % of control and 107 % of control
endpoint: mean survival time, dose: 4.0 mg/kg/injection, schedule: Q01DX009 (ip), vehicle: acid diluted with saline
  T/C: 118 % of control and 101 % of control and 102 % of control
endpoint: mean survival time, dose: 4.0 mg/kg/injection, schedule: Q04DX003 (ip), vehicle: acid diluted with saline
  T/C: 211 % of control and 230 % of control
endpoint: mean survival time, dose: 4.0 mg/kg/injection, schedule: Q04DX003 (iv), vehicle: acid diluted with saline
  T/C: 260 % of control
endpoint: mean survival time, dose: 6.48 mg/kg/injection, schedule: Q01DX001 (ip), vehicle: acid diluted with saline
  T/C: 248 % of control and 328 % of control
endpoint: mean survival time, dose: 6.48 mg/kg/injection, schedule: Q01DX001 (iv), vehicle: acid diluted with saline
  T/C: 180 % of control and 181 % of control
endpoint: mean survival time, dose: 8.0 mg/kg/injection, schedule: Q01DX005 (ip), vehicle: acid diluted with saline
  T/C: 98 % of control
endpoint: mean survival time, dose: 8.0 mg/kg/injection, schedule: Q01DX005 (oral), vehicle: acid diluted with saline
  T/C: 100 % of control and 107 % of control
endpoint: mean survival time, dose: 8.0 mg/kg/injection, schedule: Q04DX003 (ip), vehicle: acid diluted with saline
  T/C: 320 % of control
endpoint: mean survival time, dose: 8.0 mg/kg/injection, schedule: Q04DX003 (iv), vehicle: acid diluted with saline
  T/C: 163 % of control
endpoint: mean survival time, dose: 10.8 mg/kg/injection, schedule: Q01DX001 (ip), vehicle: acid diluted with saline
  T/C: 207 % of control and 309 % of control
endpoint: mean survival time, dose: 10.8 mg/kg/injection, schedule: Q01DX001 (iv), vehicle: acid diluted with saline
  T/C: 233 % of control and 261 % of control
endpoint: mean survival time, dose: 16.0 mg/kg/injection, schedule: Q01DX005 (oral), vehicle: acid diluted with saline
  T/C: 93 % of control and 109 % of control
endpoint: mean survival time, dose: 16.0 mg/kg/injection, schedule: Q04DX003 (iv), vehicle: acid diluted with saline
  T/C: 110 % of control
endpoint: mean survival time, dose: 18.0 mg/kg/injection, schedule: Q01DX001 (ip), vehicle: acid diluted with saline
  T/C: 191 % of control and 344 % of control
endpoint: mean survival time, dose: 18.0 mg/kg/injection, schedule: Q01DX001 (iv), vehicle: acid diluted with saline
  T/C: 308 % of control and 344 % of control
endpoint: mean survival time, dose: 30.0 mg/kg/injection, schedule: Q01DX001 (ip), vehicle: acid diluted with saline
  T/C: 289 % of control
endpoint: mean survival time, dose: 30.0 mg/kg/injection, schedule: Q01DX001 (iv), vehicle: acid diluted with saline
  T/C: 156 % of control
endpoint: median survival time, dose: 0.25 mg/kg/injection, schedule: Q01DX009 (ip), vehicle: acid diluted with saline
  T/C: 172 % of control
endpoint: median survival time, dose: 0.5 mg/kg/injection, schedule: Q01DX009 (ip), vehicle: acid diluted with saline
  T/C: 170 % of control and 197 % of control
endpoint: median survival time, dose: 1.0 mg/kg/injection, schedule: Q01DX009 (ip), vehicle: acid diluted with saline
  T/C: 179 % of control and 182 % of control
endpoint: median survival time, dose: 1.08 mg/kg/injection, schedule: Q04DX003 (ip), vehicle: saline
  T/C: 151 % of control
endpoint: median survival time, dose: 1.8 mg/kg/injection, schedule: Q04DX003 (ip), vehicle: saline
  T/C: 175 % of control
endpoint: median survival time, dose: 2.0 mg/kg/injection, schedule: Q01DX009 (ip), vehicle: acid diluted with saline
  T/C: 219 % of control and 370 % of control
endpoint: median survival time, dose: 2.16 mg/kg/injection, schedule: Q01DX001 (iv), vehicle: saline
  T/C: 170 % of control
endpoint: median survival time, dose: 3.6 mg/kg/injection, schedule: Q01DX001 (iv), vehicle: saline
  T/C: 170 % of control
endpoint: median survival time, dose: 5.0 mg/kg/injection, schedule: Q04DX003 (ip), vehicle: saline
  T/C: 208 % of control
endpoint: median survival time, dose: 6.0 mg/kg/injection, schedule: Q01DX001 (iv), vehicle: saline
  T/C: 196 % of control
